From ChEMBL document CHEMBL1159361, “(Z)-sarcodictyin A, a new highly cytotoxic diterpenoid from the soft coral Bellonella albiflora” (J Nat Prod, 2003)
Values after ≈ are worked out from the molar mass of the structure shown.

System: HeLa
Assay: Cytotoxicity against human HeLa cells
Assay type: functional, cell-based

| SMILES | IC50 [µg/mL] |
| --- | --- |
| COC(=O)/C1=C/[C@@H]2[C@@H](C(C)C)CC=C(C)[C@@H]2C[C@H](OC(=O)/C=C\c2cn(C)cn2)[C@]2(C)C=C[C@@]1(O)O2 | 0.09 (≈ 0.181 µM) |
| CO[C@]12C=C[C@](C)(O1)[C@@H](OC(=O)/C=C\c1cn(C)cn1)C[C@H]1C(C)=CC[C@H](C(C)C)[C@H]1/C=C\2CO[C@@H]1OC[C@@H](O)[C@@H](O)[C@@H]1OC(C)=O | 0.017 (≈ 0.0259 µM) |
| CO[C@]12C=C[C@](C)(O1)[C@@H](OC(=O)/C=C/c1cn(C)cn1)C[C@H]1C(C)=CC[C@H](C(C)C)[C@H]1/C=C\2CO [ELEUTHEROBIN AGLYCON] | 0.09 (≈ 0.186 µM) |
| CO[C@]12C=C[C@](C)(O1)[C@@H](OC(=O)/C=C/c1cn(C)cn1)C[C@H]1C(C)=CC[C@H](C(C)C)[C@H]1/C=C\2CO[C@@H]1OC[C@@H](O)[C@@H](O)[C@@H]1OC(C)=O [ELEUTHEROBIN] | 0.017 (≈ 0.0259 µM) |
| CCOC(=O)/C1=C/[C@@H]2[C@@H](C(C)C)CC=C(C)[C@@H]2C[C@H](OC(=O)/C=C/c2cn(C)cn2)[C@]2(C)C=C[C@@]1(O)O2 [SARCODICTYIN B] | 0.09 (≈ 0.176 µM) |
